≈ marks a conversion by molar mass, not a printed value.
What was measured:
[1] = system: A. fumigatus susceptible strain ASFU38A; assay: Antifungal susceptibility, spectrofluorimetric microdilution, ASFU38A; format: cell-based, Aspergillus fumigatus; settings: Aspergillus fumigatus, read-out: MIC values ASFU38A
Method: (§1) Eleven strains of A. fumigatus with various itraconazole susceptibility were used: • Five susceptible strains: ASFU7, ASFU35A, ASFU38A, ASFU76 and ASFU78. • Six itraconazole-resistant strains: ASFU77 (erg11 mutation), ASFU13, ASFU17, ASFU19, ASFU20, ASFU23.
(§2) Antifungal susceptibility was evaluated with a spectrofluorimetric microdilution method. MIC was the concentration that was able to inhibit 80% of fluorescence measured in the control wells.

[2] = system: A. fumigatus susceptible strain ASFU76; assay: Antifungal susceptibility, spectrofluorimetric microdilution, ASFU76; format: cell-based, Aspergillus fumigatus; settings: Aspergillus fumigatus, read-out: MIC values ASFU76
Method: as §1, §2

[3] = system: A. fumigatus itraconazole-resistant strain ASFU19; assay: Antifungal susceptibility, spectrofluorimetric microdilution, ASFU19; format: cell-based, Aspergillus fumigatus; settings: Aspergillus fumigatus, read-out: MIC values ASFU19
Method: as §1, §2

[4] = system: Candida albicans strain (CAAL93); assay: Murine systemic candidiasis; format: in vivo; settings: neutropenic Swiss mice, CAAL93 i.v., 10 mg/kg per os once a day for 5 days; for survival compared with the non-treated group: 28 days (compound 51, 14 days); for fungal burden of the kidney: p<0.05 (compound 51 p<0.001)
Method: Transiently neutropenic female Swiss mice were used for experiments on systemic candidiasis and invasive aspergillosis.
Mice were inoculated intravenously with a Candida albicans strain (CAAL93). Treatment was administrated once a day (10 mg/kg per os) for 5 days. […] Fungal burden of the kidney was evaluated in dead animals during the experimentation or in animals sacrificed at the end of the experimentation.

[5] = system: fluconazole-resistant C. albicans strain CAAL111 (efflux pump); assay: microbe, parasite or virus in culture; format: cell-based; settings: Candida albicans, read-out: MIC values CAAL111
Method: (§3) Eight strains of Candida spp. with various azoles-susceptibilities were used: • One fluconazole-susceptible C. albicans strain: CAAL93 • Two fluconazole-resistant C. albicans strains: CAAL111 (efflux pump) and CAAL117 (erg11 mutations+voriconazole-resistant) • five fluconazole-resistant Candida non albicans strains: C. krusei (CAKR7, CAKR8), C. glabrata (CAGL2), C. parapsilosis s.l. (CAPA1, CAPA2).
(§4) Antifungal susceptibility was evaluated with a spectrofluorimetric microdilution method.

[6] = system: fluconazole-resistant C. albicans strain CAAL117 (erg11 mutations+voriconazole-resistant); assay: microbe, parasite or virus in culture; format: cell-based
Method: as §3, §4

[7] = system: fluconazole-resistant C. krusei (CAKR7); assay: microbe, parasite or virus in culture; format: cell-based; settings: Pichia kudriavzevii, read-out: MIC values CAKR7
Method: as §3, §4

[8] = system: fluconazole-resistant C. glabrata (CAGL2); assay: microbe, parasite or virus in culture; format: cell-based; settings: Nakaseomyces glabratus, read-out: MIC values CAGL2
Method: as §3, §4

[9] = system: fluconazole-resistant C. krusei (CAKR8); assay: microbe, parasite or virus in culture; format: cell-based; settings: Pichia kudriavzevii, read-out: MIC values CAKR8
Method: as §3, §4

[10] = system: A. fumigatus itraconazole-resistant strain ASFU20; assay: Antifungal susceptibility, spectrofluorimetric microdilution, ASFU20; format: cell-based, Aspergillus fumigatus
Method: as §1, §2

[11] = system: A. fumigatus susceptible strain ASFU35A; assay: Antifungal susceptibility, spectrofluorimetric microdilution, ASFU35A; format: cell-based, Aspergillus fumigatus; settings: Aspergillus fumigatus, read-out: MIC values ASFU35A
Method: as §1, §2

[12] = system: A. fumigatus itraconazole-resistant strain ASFU13; assay: Antifungal susceptibility, spectrofluorimetric microdilution, ASFU13; format: cell-based, Aspergillus fumigatus
Method: as §1, §2

[13] = system: A. fumigatus susceptible strain ASFU78; assay: Antifungal susceptibility, spectrofluorimetric microdilution, ASFU78; format: cell-based, Aspergillus fumigatus; settings: Aspergillus fumigatus, read-out: MIC values ASFU78
Method: as §1, §2

Hela Human cell line = assay: Cytotoxicity on HeLa cells; format: cell-based; settings: 100 μM
Method: Hela Human cell line was used in view to evaluate cytotoxicity. It was evaluated with a spectrofluorimetric microdilution method. IC50 was the concentration that was able to inhibit 50% of fluorescence measured in the control wells.

[14] = system: fluconazole-susceptible C. albicans strain: CAAL93; assay: Antifungal susceptibility, spectrofluorimetric microdilution, CAAL93; format: cell-based; settings: Candida albicans, read-out: MIC values CAAL93
Method: as §3, §4

[15] = system: A. fumigatus itraconazole-resistant strain ASFU77 (erg11 mutation); assay: Antifungal susceptibility, spectrofluorimetric microdilution, ASFU77; format: cell-based, Aspergillus fumigatus; settings: for MIC: Aspergillus fumigatus, read-out: MIC values ASFU77
Method: as §1, §2

[16] = system: A. fumigatus itraconazole-resistant strain ASFU23; assay: Antifungal susceptibility, spectrofluorimetric microdilution, ASFU23; format: cell-based, Aspergillus fumigatus
Method: as §1, §2

[17] = system: A. fumigatus itraconazole-resistant strain ASFU17; assay: Antifungal susceptibility, spectrofluorimetric microdilution, ASFU17; format: cell-based, Aspergillus fumigatus; settings: Aspergillus fumigatus, read-out: MIC values ASFU17
Method: as §1, §2

CRL:(WI) rats = assay: Acute oral toxicity study in rats; format: in vivo
Method: The single-dose oral toxicity of compound 51 was performed according to the acute toxic class method (OECD 423 and Commission Regulation (EC) No 440/2008 of 30 May 2008, B.1.Tris) in CRL:(WI) rats.
Two groups of three female CRL:(WI) rats were treated with the test item at a dose level of 300 mg/kg bw (Group 1 and Group 2).
A single oral treatment was carried out by gavage for each animal after an overnight food withdrawal. Food was made available again 3 hours after the treatment. The test item was administered formulated in DMSO at a concentration of 30 mg/mL at a dose volume of 10 mL/kg bw.
Initially, three females (Group 1) were treated at a dose level of 300 mg/kg bw. As no mortality was observed, a confirmatory group (Group 2) was treated at the same dose level.
Clinical observations were performed at 30 minutes, 1, 2, 3, 4 and 6 hours after dosing and daily for 14 days thereafter. Body weight was measured on days −1, 0 and 7 and before necropsy. All animals were subjected to a necropsy and a macroscopic examination

[18] = system: A. fumigatus susceptible strain ASFU7; assay: Antifungal susceptibility, spectrofluorimetric microdilution, ASFU7; format: cell-based, Aspergillus fumigatus; settings: Aspergillus fumigatus, read-out: MIC values ASFU7
Method: as §1, §2

[19] = system: promastigote stage of a Leishmania mexicana strain; assay: Anti-Trypanosomatidae activity, promastigote stage, spectrofluorimetric microdilution; format: cell-based
Method: Compounds were evaluated on the promastigote stage of a Leishmania mexicana strain using a spectrofluorimetric microdilution method. Inhibitory concentration 50 (IC50) was the concentration that inhibited 50% of the control growth.

[20] = system: fluconazole-resistant C. parapsilosis s.l. (CAPA2); assay: microbe, parasite or virus in culture; format: cell-based; settings: Lodderomyces parapsilosis, read-out: MIC values CAPA2
Method: as §3, §4

[21] = system: fluconazole-resistant C. parapsilosis s.l. (CAPA1); assay: microbe, parasite or virus in culture; format: cell-based; settings: Lodderomyces parapsilosis, read-out: MIC values CAPA1
Method: as §3, §4

COc1ccc(-c2cc3cnn([C@H](C)[C@](O)(Cn4cncn4)c4ccc(F)cc4F)c(=O)n3c2)cc1 [Compound 51, 3-[(1R,2R)-2-(2,4-Difluorophenyl)-2-hydroxy-1-methyl-3-(1,2,4-triazol-1-yl)propyl]-7-(4-methoxyphenyl)-3H-pyrrolo[1,2-d][1,2,4]triazin-4-one]
MIC [1]: 5.84 ± 0.2 µg/mL (≈ 11.9 µM)
MIC [2]: 6.52 ± 0.16 µg/mL (≈ 13.2 µM)
MIC [3]: > 49 µg/mL
survival compared with the non-treated group ([4]; p<0.05): significant longer survival
fungal burden of the kidney [4]: most active
MIC [5]: < 0.001 µg/mL
MIC ([6]; Candida albicans, read-out: MIC values CAAL117): 0.018 ± 0.002 µg/mL (≈ 0.0365 µM)
fold more active than voriconazole against CAAL117 ([6]; compared with voriconazole): 100 fold
MIC [7]: 0.062 ± 0.032 µg/mL (≈ 0.126 µM)
MIC [8]: 0.017 ± 0.003 µg/mL (≈ 0.0345 µM)
MIC [9]: 0.081 ± 0.009 µg/mL (≈ 0.164 µM)
activity against ITRA-resistant isolate ASFU20, in words [10]: active
MIC ([10]; Aspergillus fumigatus, read-out: MIC values ASFU20): 3.14 µg/mL (≈ 6.38 µM)
MIC [11]: 6.08 ± 0.29 µg/mL (≈ 12.3 µM)
activity against ITRA-resistant isolate ASFU13, in words [12]: active
MIC ([12]; Aspergillus fumigatus, read-out: MIC values ASFU13): 2.03 µg/mL (≈ 4.12 µM)
MIC [13]: 6.01 ± 0.48 µg/mL (≈ 12.2 µM)
cytotoxic effect at the higher concentration used (Hela Human cell line): didn't show any cytotoxic effect
MIC [14]: < 0.001 µg/mL
MIC values against ITRA-resistant isolate carrying M220T mutation (ASFU77), in words [15]: in the micromolar range
MIC [15]: 6.6 ± 0.24 µg/mL (≈ 13.4 µM)
activity against ITRA-resistant isolate ASFU23, in words [16]: active
MIC ([16]; Aspergillus fumigatus, read-out: MIC values ASFU23): 1.92 µg/mL (≈ 3.9 µM)
MIC [17]: > 49 µg/mL
acute oral LD50 (CRL:(WI) rats; female CRL:(WI) rats, single oral gavage): above 300 mg/kg bw
GHS ranking for acute oral exposure (CRL:(WI) rats; female, CRL:(WI), rat, in vivo, po, 14 days): Category 4
body weight gains (CRL:(WI) rats; rat, in vivo, po, 300 mg/kg): no indication of a test item-related effect
clinical observations (CRL:(WI) rats; rat, in vivo, po, 300 mg/kg): hunched back and slightly decreased activity
mortality (CRL:(WI) rats; rat, in vivo, po, 300 mg/kg): did not cause mortality
MIC [18]: 2.21 ± 0.09 µg/mL (≈ 4.49 µM)

C[C@@H](n1ccc2nc(-c3ccc([N+](=O)[O-])cc3)cn2c1=O)[C@](O)(Cn1cncn1)c1ccc(F)cc1F [Compound 35, 6-[(1R,2R)-2-(2,4-Difluorophenyl)-2-hydroxy-1-methyl-3-(1H-1,2,4-triazol-1-yl)propyl]-2-(4-nitrophenyl)imidazo[1,2-c]pyrimidin-5-one]
MIC [1]: 25.6 ± 24.8 µg/mL (≈ 50.5 µM)
MIC [2]: 7.45 ± 1 µg/mL (≈ 14.7 µM)
survival efficiency compared with FLC [4]: significantly more efficient than FLC
survival compared with the non-treated group ([4]; p<0.05): significant longer survival
activity on fungal burden of the kidney compared to FLC ([4]; p<0.05): significantly higher when compared to FLC
fungal burden of the kidney [4]: significantly decreased
effectiveness against the promastigote stage of L. Mexicana, in words [19]: effective
IC50 ([19]; Leishmania mexicana, promastigote stage, 50% of control growth, read-out: L. mexicana (IC50 μM)): 11.4 ± 1.5 µM
MIC [5]: 0.007 ± 0.003 µg/mL (≈ 0.0138 µM)
MIC [20]: 0.004 ± 0.003 µg/mL (≈ 0.00788 µM)
MIC [21]: 0.011 ± 0.003 µg/mL (≈ 0.0217 µM)
MIC [8]: 0.2 ± 0.06 µg/mL (≈ 0.394 µM)
MIC [9]: 0.07 ± 0.01 µg/mL (≈ 0.138 µM)
MIC [11]: 6.71 ± 0.06 µg/mL (≈ 13.2 µM)
MIC [13]: 6.19 ± 0.8 µg/mL (≈ 12.2 µM)
cytotoxic effect at the higher concentration used (Hela Human cell line): didn't show any cytotoxic effect
MIC [14]: < 0.001 µg/mL
MIC [15]: 62.2 ± 2.92 µg/mL (≈ 123 µM)
MIC [18]: 2.52 ± 0.05 µg/mL (≈ 4.97 µM)

Source: patent US10626115B2, “Fused pyrimidinone and triazinone derivatives containing bridged nitrogen, their process of preparation and their therapeutic uses as antifungal and/or antiparasitic agents” (UNIVERSITE DE NANTES, priority 2015, dated 2020)
